Results from the METLIN SMRT retention time set (Domingo-Almenara et al. 2019).

Test: gradient 5% acetonitrile 3 min, to 50% in 2 min, to 85% in 15 min, held 3 min, 100 µL/min
Conditions: column: Zorbax Extend-C18 2.1 x 50 mm; eluents: water / acetonitrile, 0.1% formic acid
How it was run: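 In both positive and negative ionization mode, a quadrupole time-of-flight mass spectrometer coupled to HPLC analyzed pure standards run in mixtures of ~100 molecules. The Zorbax Extend-C18 column (2.1 × 50 mm, 1.8 μm) was operated at 100 μL/min with water and acetonitrile, each containing 0.1% formic acid. The dead volume was 40 μL and the dwell volume 900 μL. Retention time came from adduct peaks that were computationally picked and individually inspected by hand.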
For `Cn1cc(-c2cc3n(n2)CCC(=O)N3CC(=O)NCCN2CCOCC2)c2ccccc21`, the RP-LC retention time was 612 s.
With `CC(NC(=O)c1cc(F)cc(F)c1)C(=O)Nc1nc2ccccc2[nH]1` (configuration not stated) the RP-LC retention time was 655 s.
`CCOc1ccc2c(n1)CCN(C(=O)Nc1ccc(CC)cc1)C2` gave an RP-LC retention time of 943 s.
In the case of `CCN1CCCC1CNC(=O)C1c2cc(OC)c(OC)cc2C(=O)N(C)C1c1ccc(OC)cc1` (configuration not stated), the RP-LC retention time is reported as 611 s.
Molecule `CCNC(=O)N1CCCN(S(=O)(=O)CC)CC1` has an RP-LC retention time of 582 s.
Molecule `Cc1cc(N2CCN(C)CC2)nc2ccc(NC(=O)NCCc3ccccc3)cc12` has an RP-LC retention time of 614 s.
`O=C(CSc1nnc(NC(=O)c2ccccc2C(F)(F)F)s1)NC1CCCCC1` showed an RP-LC retention time of 781 s.
`COC(=O)C(C)NC(=O)N1CCN(c2nc3ccccc3n3cccc23)CC1` (configuration not stated) gave an RP-LC retention time of 605 s.
`CCC(Sc1nc(=O)cc(N)n1CCc1ccccc1)C(=O)Nc1nc(-c2ccccc2)cs1` (configuration not stated) showed an RP-LC retention time of 878 s.
Work on `COCC(=O)Nc1ccc(N2CCC(N3CCCCC3)CC2)cc1C(=O)O` yielded an RP-LC retention time of 654 s.
`Cc1cc(C)cc(Oc2nccn3c(=O)n(CC(=O)Nc4c(C)cccc4C)nc23)c1` gave an RP-LC retention time of 906 s.
Work on `Cc1nn(-c2ccc(-c3ccccc3)nn2)c(C)c1S(=O)(=O)Nc1ccc2c(c1)OCCO2` yielded an RP-LC retention time of 978 s.
Molecule `CSc1ccc(CNC(=O)Cn2cc(-c3nnc(C)o3)c3ccccc32)cc1` has an RP-LC retention time of 812 s.
For `COc1cc2c(cc1OC)C(C(=O)N1CCC(C(N)=O)CC1)C(c1cccs1)N(C)C2=O` (configuration not stated), the RP-LC retention time was 596 s.
`CCc1cccc(C)c1Nc1c(-c2ccc(SC)cc2)nc2ncccn12` showed an RP-LC retention time of 916 s.
Work on `CCc1nc(-c2csc(S(=O)(=O)N3CCCC(C(=O)NC4CCCCC4)C3)c2)no1` (configuration not stated) yielded an RP-LC retention time of 1020 s.
In the case of `Cc1cc(C(=O)NC2CC2)no1`, the RP-LC retention time is reported as 628 s.
`COC(=O)C(C)NC(=O)NCc1cccn1Cc1cccc(C)c1` (configuration not stated) gave an RP-LC retention time of 827 s.
For `Cc1ccc(-c2csc(-n3nc(C)c(CC(=O)Nc4ccc(C)c(C)c4)c3C)n2)cc1`, the RP-LC retention time was 1310 s.
In the case of `CCn1cc(-c2nc(CC(=O)Nc3ccc(F)cc3F)cs2)c2cccnc21`, the RP-LC retention time is reported as 992 s.
In the case of `CCN1CCn2cc(S(=O)(=O)Nc3cc(F)cc(F)c3)cc2C1=O`, the RP-LC retention time is reported as 755 s.
`COc1ccc(-c2ncc3c(n2)CCN(S(=O)(=O)c2ccc(C)cc2)C3)cc1` gave an RP-LC retention time of 1050 s.
In the case of `O=C(Nc1cccc(-c2ccc(N3CCOCC3)nn2)c1)Nc1ccccc1C(F)(F)F`, the RP-LC retention time is reported as 750 s.
`O=C(Cc1cccs1)N1CCC(COc2ccc(C(=O)N3CCOCC3)cc2)CC1` showed an RP-LC retention time of 734 s.
With `Cc1cc(C)n(Cc2nc(-c3ccc(NC(=O)CCc4ccccc4)cc3)oc2C)n1` the RP-LC retention time was 944 s.
In the case of `O=C(C1CCN(c2cnn(Cc3ccccc3)c(=O)c2)CC1)N1CCc2ccccc2C1`, the RP-LC retention time is reported as 829 s.
For `Cc1ccc(-n2c(=O)c3sccc3n(Cc3nc(-c4ccccc4)no3)c2=O)cc1`, the RP-LC retention time was 985 s.
`O=C(Nc1ccc2c(c1)OCCO2)N1CCN(c2nc3ccccc3n(Cc3ccccc3)c2=O)CC1` gave an RP-LC retention time of 1010 s.
Work on `Cc1ccc(-n2cc3c(c(C(=O)Nc4cccnc4)c2=O)CC(C)(C)CC3=O)cc1` yielded an RP-LC retention time of 734 s.
`COc1ccc(S(=O)(=O)N2CCC(n3cnnc3-c3ccccc3)CC2)cc1Cl` gave an RP-LC retention time of 815 s.
In the case of `Cc1ccc(CNS(=O)(=O)c2cc3n(c2)CCCNC3=O)o1`, the RP-LC retention time is reported as 615 s.
`O=C(CC1CCN(C(=O)c2ccc3oc(-c4ccccc4)nc3c2)CC1)NCc1ccco1` showed an RP-LC retention time of 793 s.
Molecule `CCCOc1nc2ccccc2nc1N1CCCC(C(=O)Nc2cccc(CC)c2)C1` (configuration not stated) has an RP-LC retention time of 1260 s.
For `CCOC(=O)c1c(NC(=O)CN2CCN(c3ccccn3)CC2)sc(C(N)=O)c1C`, the RP-LC retention time was 599 s.
With `O=C(NCc1nc(-c2ccc(N3CCCCC3)cc2)no1)c1ccco1` the RP-LC retention time was 777 s.
Work on `CCCCN(C)C(=O)C1CCN(c2cncnc2N2CCCCC2)CC1` yielded an RP-LC retention time of 661 s.
`CC(C)n1nc(CNC(=O)C2CCN(S(=O)(=O)c3ccccc3)CC2)c2ccccc21` gave an RP-LC retention time of 918 s.
In the case of `Cc1ccc(NC(=O)c2cccn2Cc2noc(C)n2)c(Br)c1`, the RP-LC retention time is reported as 942 s.
In the case of `O=S1(=O)C[C@H](N2CCN(Cc3ccccc3)CC2)[C@@H](S(=O)(=O)c2ccc(F)cc2)C1`, the RP-LC retention time is reported as 647 s.
In the case of `COc1cccc2c1OC1(C)CC2C(S(=O)(=O)c2ccc(Cl)cc2)C(=O)N1` (configuration not stated), the RP-LC retention time is reported as 877 s.
Work on `COc1ccc(NC(=O)C2CCCN(S(=O)(=O)c3cc(-c4noc(C)n4)cs3)C2)cc1Cl` (configuration not stated) yielded an RP-LC retention time of 991 s.
`COc1cccc(S(=O)(=O)N2CCC(Cc3nncn3C(C)C)C2)c1` (configuration not stated) showed an RP-LC retention time of 664 s.
Molecule `Cn1cccc1CN(C(=O)c1ccc(Cl)c(Cl)c1)C1CC1` has an RP-LC retention time of 994 s.
With `Cc1ccc2sc(N(CCCn3ccnc3)C(=O)c3ccc4c(c3)OCCO4)nc2c1C` the RP-LC retention time was 636 s.
In the case of `O=C(Nc1ccc(C(=O)NCCCN2CCN(C3CCCCC3)CC2)cc1)C1=CSCCO1`, the RP-LC retention time is reported as 579 s.
`COc1cc(NC(=O)CN2CCc3[nH]c4c(C)ccc(F)c4c(=O)c3C2)cc(OC)c1` showed an RP-LC retention time of 604 s.
`Cc1ccc(S(=O)(=O)N2CCC(C(=O)NCc3csc(-c4cccs4)n3)CC2)cc1C` showed an RP-LC retention time of 950 s.
`Cc1ccccc1Nc1nc(N)nc(CN2CCN(c3ccccn3)CC2)n1` showed an RP-LC retention time of 568 s.
`Cc1nc(CCNC(=O)[C@H]2CCCN2C(=O)c2cccc(F)c2)cs1` gave an RP-LC retention time of 642 s.
Molecule `CC1CCCN(S(=O)(=O)c2ccc(-c3nnc(C4CCC4)o3)o2)C1` (configuration not stated) has an RP-LC retention time of 1010 s.
`COc1ccc(NC(=O)CCNc2cnc3cnccn23)cc1Cl` gave an RP-LC retention time of 603 s.
For `Cc1cc(Cl)ccc1NC(=O)N1CC(Cc2nc(-c3cnccn3)no2)C1`, the RP-LC retention time was 754 s.
`O=C(Cn1ncc2c(c1=O)N(CC1CC1)C(=O)CS2)N1CCN(c2ccccc2)CC1` showed an RP-LC retention time of 788 s.
`O=C1C(NS(=O)(=O)Cc2cc(F)cc(F)c2)CCN1c1ccccc1` (configuration not stated) gave an RP-LC retention time of 914 s.
`c1ccc(-c2nc(CSc3cc(N4CCOCC4)ncn3)cs2)cc1` showed an RP-LC retention time of 817 s.
With `CCOC(=O)CC(=O)Nc1cc2c(cc1N1CCCC1)n(C)c(=O)n2C` the RP-LC retention time was 587 s.
In the case of `O=C(NCCc1csc(-c2ccccc2)n1)C1CCN(C(=O)Cc2ccc(Cl)cc2)CC1`, the RP-LC retention time is reported as 866 s.
`Cc1ccccc1Nc1c(-c2c(F)cccc2Cl)nc2c(C)cccn12` gave an RP-LC retention time of 774 s.
With `CCOC(=O)C(C)(C)Sc1nnc(NC(=O)C2CCN(S(C)(=O)=O)CC2)s1` the RP-LC retention time was 721 s.
`O=C(NC1CCN(c2cc(-c3cccnc3)[nH]n2)CC1)c1ccc2cc[nH]c2c1` gave an RP-LC retention time of 616 s.
With `CC1(C(=O)NCc2ccccc2)CCCN(C(=O)Nc2ccc(Br)cc2)C1` (configuration not stated) the RP-LC retention time was 980 s.
With `CCOC(=O)c1[nH]c(C)c(CCC(=O)N2CCC(C(=O)NCc3ccccc3OCC)CC2)c1C` the RP-LC retention time was 832 s.
`O=C(CN1C(=O)CN(C(=O)NCc2ccccc2)c2ccccc21)NC1CCCc2ccccc21` (configuration not stated) gave an RP-LC retention time of 892 s.
With `COCCNC(=O)C1CCCN(c2cnc3nc(C)c(C)nc3c2)C1` (configuration not stated) the RP-LC retention time was 602 s.
For `CN(C)[C@@H]1CN(C(=O)Cc2cccc3ccccc23)C[C@H]1CO`, the RP-LC retention time was 546 s.
With `Cc1nc2cccnc2n1CCN1CCN(C(=O)Nc2ccccc2Cl)CC1` the RP-LC retention time was 584 s.
With `COc1ccc(-c2cn3ccn(-c4cccc(F)c4)c(=O)c3n2)cc1OC` the RP-LC retention time was 746 s.
In the case of `O=C(NCC1CCN(Cc2cccs2)CC1)C(=O)Nc1ccc(C(F)(F)F)cc1`, the RP-LC retention time is reported as 603 s.
`CCc1noc2nc(C)n(CC(=O)NCC(C)c3ccccc3)c(=O)c12` (configuration not stated) gave an RP-LC retention time of 835 s.
Work on `Cc1c(F)cccc1NC(=O)C1CCc2nc(N3CCOCC3)ncc2C1` (configuration not stated) yielded an RP-LC retention time of 808 s.
For `CCCN1CCN(C(=O)CN2C(=O)C3CCCCN3c3ccc(C(=O)N(C)C)cc32)CC1` (configuration not stated), the RP-LC retention time was 602 s.
With `COc1ccc(Nc2c(-c3ccccc3)nc3cnc(Br)cn23)cc1OC` the RP-LC retention time was 856 s.
`CCc1nc(OCC(=O)NCc2ccc(F)cc2)c2ccccc2n1` showed an RP-LC retention time of 753 s.
Molecule `CC(C)CCC(=O)N1CCc2nc(N3CCN(C)CC3)sc2C1` has an RP-LC retention time of 609 s.
`CCc1nc(-c2csc(S(=O)(=O)N3CCCC(C(=O)Nc4cccc(Cl)c4C)C3)c2)no1` (configuration not stated) showed an RP-LC retention time of 1080 s.
Molecule `O=C(NCCc1csc(-c2cccs2)n1)C1CCN(C(=O)c2cccc(F)c2)CC1` has an RP-LC retention time of 768 s.
`Cc1ccsc1C(=O)N1CCC2(CC1)NC(=O)N(Cc1cccc(Cl)c1)C2=O` showed an RP-LC retention time of 852 s.
`Cc1ccn2c(NC(=O)/C=C/c3ccccc3)c(-c3ccccc3)nc2c1` gave an RP-LC retention time of 703 s.
Work on `O=C(Nc1ccc(F)cc1)c1ccc(Br)s1` yielded an RP-LC retention time of 935 s.
For `CCCCC(=O)Nc1nnc(SCc2nnc(-c3ccc4c(c3)OCO4)o2)s1`, the RP-LC retention time was 859 s.
`CCn1nccc1C(=O)NCCn1c(=O)n(Cc2ccc(C)cc2)c2cccnc21` gave an RP-LC retention time of 773 s.
For `COc1ccc(-c2noc(C3CCCN3C(=O)c3ccsc3)n2)cc1OC` (configuration not stated), the RP-LC retention time was 834 s.
For `CCOc1ccn(-c2ccc(F)cc2)c(=O)c1C(=O)Nc1ccc(Oc2ccnc(N)c2Cl)c(F)c1`, the RP-LC retention time was 700 s.
With `COC(=O)c1ncn2c1C(=O)N(Cc1cccc(F)c1)C(C)(C(=O)NCc1ccccc1)C2` (configuration not stated) the RP-LC retention time was 729 s.
In the case of `O=C(Nc1ccccc1C(F)(F)F)C1CCCN(c2ccc(=O)n(-c3cccc(Cl)c3)n2)C1` (configuration not stated), the RP-LC retention time is reported as 971 s.
Molecule `COc1ccc(-c2nc3ccc(C)cn3c2Nc2ccc3c(c2)OCO3)cc1` has an RP-LC retention time of 684 s.
Work on `Cc1cc2nn(CC(=O)NCc3ccc(F)cc3)c(=O)n2c(Nc2ccccc2C)n1` yielded an RP-LC retention time of 977 s.
